How the values were obtained:
[1] = Liver microsome stability, human; assay type: in vitro ADME; conditions: liver microsomes
Method: (§1) • Compounds: Ketanserin, Formula 18, Formula 45 • Liver microsomes: Human liver microsomes (purchased from BioreclamationIVT); Dog, mouse, rat, and monkey liver microsomes (purchased from Xenotech)
(§2) Preparation of 500 μM compound solution: Add 5 μL of 10 mM compound solution and 95 μL of DMSO to an EP tube.
(§3) Preparation of solution containing 0.75 mg/mL liver microsomes and 1.5 μM compound: Add 1.5 μL of the 500 μM compound solution, 18.75 μL of the 20 mg/mL liver microsome solution, and 479.75 μL of PBS to an EP tube.
(§4) Preparation of 6 mM NADPH solution: Dissolve 5 mg of NADPH in 1 mL of PBS solution.
(§5) Add 30 μL of the solution containing 0.75 mg/mL liver microsomes and a concentration gradient of the compound to a 96-well plate. Add 15 μL of the 6 mM NADPH solution and 150 μL of a 1:1 acetonitrile:methanol solution containing an internal standard (IS). Vortex and centrifuge at 6,000 rpm for 10 min. 80 μL of the supernatant from each concentration sample is transferred to a 96-well plate containing 140 μL of pure water for LC/MS detection (injection volume of […]). […]
(§6) 80 μL of the supernatant from each well is transferred to a 96-well plate containing 140 μL of pure water for LC/MS detection (injection volume of […]). The compound concentration value is determined by comparing the corresponding mass spectrometry peak area with the standard curve. […]

[2] = Liver microsome stability, rat; assay type: in vitro ADME; conditions: liver microsomes
Method: as §1, §2, §3, §4, §5, §6

[3] = Liver microsome stability, dog; assay type: in vitro ADME; conditions: liver microsomes
Method: as §1, §2, §3, §4, §5, §6

[4] = Liver microsome stability, monkey; assay type: in vitro ADME; conditions: liver microsomes
Method: as §1, §2, §3, §4, §5, §6

[5] = molecular target: T1, CDK12 (Homo sapiens, UniProt Q9NYV4); experiment: Western blot degradation of CDK12 (Example 2); assay type: cell-based; parameters: degradation of CDK12/13 protein in leukemia cells KASUMI-1, MV4-11, and Jurkat; endogenous in cells; conditions: DC50 classes; cell line not given; read-out: CDK12 degradation Activity
Summary of the method: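 Leukemia lines KASUMI-1, MV4-11, Jurkat, plus MDA-MB-231 for a concentration series, treated at 0.01–3 μM for 3–48 h at 37 °C against DMSO control. Lysates in 4% SDS; CDK12/13 band intensity normalized to β-Actin or GAPDH to give degradation rate.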

[6] = molecular target: T2, CDK13 (Homo sapiens, UniProt Q14004); experiment: Western blot degradation of CDK13 (Example 2); assay type: cell-based; parameters: degradation of CDK12/13 protein in leukemia cells KASUMI-1, MV4-11, and Jurkat; endogenous in cells; conditions: DC50 classes; cell line not given; read-out: CDK13 degradation Activity
[7] = system: serine 2 in the C-terminal domain of RNA polymerase II (CTD-pSer2); experiment: Phosphorylation of serine 2 in the C-terminal domain of RNA polymerase II, Western blot; assay type: cell-based; conditions: MDA-MB-231, 24 h, concentration gradient
Method: Protein Western blot was used to determine the degradation of CDK12/13 protein in colorectal cancer cells HCT-116, breast cancer cells MDA-MB-231, and leukemia cells Jurkat. The two compounds with the best degradation effects were further validated for their ability to degrade CDK12/13 protein in MDA-MB-231 cells using a concentration gradient. The effect of the compounds on the phosphorylation of serine 2 in the C-terminal domain of RNA polymerase II (CTD-pSer2) was also measured.
(§7) (3) Compound treatment: The 50 mM compound stock solution was diluted with cell culture medium to a final concentration of 0.01 μM-3 μM. Cells were incubated in a 37 °C incubator with 5% CO2 for 3 h-48 h. The DMSO group served as the negative control.

[8] = system: CCNK; experiment: Reversal of CCNK degradation by proteasome inhibitor MG132, Western blot; assay type: cell-based; conditions: MDA-MB-231, 24 h treatment, MG132 added 12 h before sample collection
Method: (§8) • Cell lines: HCT-116, Jurkat, or MDA-MB-231 • Culture medium: DMEM/RIPM-1640+10% Hyclone serum • Compound dissolution method: The compounds (small molecule conjugates as shown in Formulae 101-147, MG132) were dissolved in DMSO to prepare a 50 mM stock solution and then diluted to the corresponding concentrations.
as §7
In the figures, CDK12, CDK13, and CCNK are the target proteins under study, and β-Actin and GAPDH are the internal reference proteins. Internal reference proteins are used to indicate the total protein amount in each experimental group for quantitative analysis.

[9] = molecular target: T1, CDK12; experiment: Reversal of CDK12 degradation by proteasome inhibitor MG132, Western blot; assay type: cell-based; parameters: endogenous in cells; conditions: MDA-MB-231, 24 h treatment, MG132 added 12 h before sample collection
Method: as §8, §7

[10] = molecular target: T2, CDK13; experiment: Reversal of CDK13 degradation by proteasome inhibitor MG132, Western blot; assay type: cell-based; parameters: endogenous in cells; conditions: MDA-MB-231, 24 h treatment, MG132 added 12 h before sample collection
Method: as §8, §7

[11] = molecular target: T1, CDK12; experiment: Western blot degradation of CDK12 (Example 3); assay type: cell-based; parameters: degradation of CDK12/13 protein in leukemia cells KASUMI-1, MV4-11, and Jurkat; endogenous in cells
[12] = molecular target: T2, CDK13; experiment: Western blot degradation of CDK13 (Example 3); assay type: cell-based; parameters: degradation of CDK12/13 protein in leukemia cells KASUMI-1, MV4-11, and Jurkat; endogenous in cells
[13] = DC50 classes, cell line not given, read-out: CDK12 degradation Activity
[14] = DC50 classes, cell line not given, read-out: CDK13 degradation Activity

T1 sequence (Q9NYV4 whole entry): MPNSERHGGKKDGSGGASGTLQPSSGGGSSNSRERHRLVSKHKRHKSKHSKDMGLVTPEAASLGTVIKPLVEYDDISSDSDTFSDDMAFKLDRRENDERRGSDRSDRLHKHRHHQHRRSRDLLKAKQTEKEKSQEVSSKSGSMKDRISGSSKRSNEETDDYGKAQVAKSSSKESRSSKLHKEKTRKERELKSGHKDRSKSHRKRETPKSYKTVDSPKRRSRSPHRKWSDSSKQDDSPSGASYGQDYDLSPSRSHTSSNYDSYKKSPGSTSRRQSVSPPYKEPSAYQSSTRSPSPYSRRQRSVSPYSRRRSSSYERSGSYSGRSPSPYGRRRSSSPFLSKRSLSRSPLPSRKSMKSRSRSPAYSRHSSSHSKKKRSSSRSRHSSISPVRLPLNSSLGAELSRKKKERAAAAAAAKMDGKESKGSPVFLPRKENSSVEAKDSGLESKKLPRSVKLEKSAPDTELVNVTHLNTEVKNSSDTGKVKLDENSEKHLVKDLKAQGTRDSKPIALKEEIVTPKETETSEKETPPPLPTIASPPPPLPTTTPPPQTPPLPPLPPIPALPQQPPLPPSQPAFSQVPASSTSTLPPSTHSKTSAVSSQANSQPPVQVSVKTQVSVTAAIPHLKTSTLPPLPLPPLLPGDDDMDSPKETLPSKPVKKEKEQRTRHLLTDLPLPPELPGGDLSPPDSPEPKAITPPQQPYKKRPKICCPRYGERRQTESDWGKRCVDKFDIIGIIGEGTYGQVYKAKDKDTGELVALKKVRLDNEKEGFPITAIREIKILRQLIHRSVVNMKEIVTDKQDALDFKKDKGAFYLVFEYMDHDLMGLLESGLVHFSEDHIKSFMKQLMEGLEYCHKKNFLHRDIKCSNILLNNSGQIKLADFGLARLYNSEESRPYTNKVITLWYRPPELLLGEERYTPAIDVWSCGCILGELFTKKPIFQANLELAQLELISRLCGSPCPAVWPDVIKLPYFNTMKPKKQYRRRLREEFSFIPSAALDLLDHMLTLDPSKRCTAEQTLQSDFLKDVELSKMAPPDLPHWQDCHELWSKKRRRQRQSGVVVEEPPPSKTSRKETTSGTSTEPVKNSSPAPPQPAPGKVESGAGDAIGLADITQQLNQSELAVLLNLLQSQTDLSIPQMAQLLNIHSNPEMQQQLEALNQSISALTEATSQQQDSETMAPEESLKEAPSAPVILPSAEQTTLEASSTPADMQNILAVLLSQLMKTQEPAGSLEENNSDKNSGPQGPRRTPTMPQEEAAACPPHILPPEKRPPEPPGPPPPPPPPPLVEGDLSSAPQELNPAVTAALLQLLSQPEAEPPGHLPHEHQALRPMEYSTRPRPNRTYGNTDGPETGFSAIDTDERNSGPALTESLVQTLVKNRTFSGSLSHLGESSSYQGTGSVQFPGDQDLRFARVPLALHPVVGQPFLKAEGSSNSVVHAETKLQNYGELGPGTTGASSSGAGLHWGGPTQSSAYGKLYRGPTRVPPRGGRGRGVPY
T1 sequence (O75909 whole entry partner): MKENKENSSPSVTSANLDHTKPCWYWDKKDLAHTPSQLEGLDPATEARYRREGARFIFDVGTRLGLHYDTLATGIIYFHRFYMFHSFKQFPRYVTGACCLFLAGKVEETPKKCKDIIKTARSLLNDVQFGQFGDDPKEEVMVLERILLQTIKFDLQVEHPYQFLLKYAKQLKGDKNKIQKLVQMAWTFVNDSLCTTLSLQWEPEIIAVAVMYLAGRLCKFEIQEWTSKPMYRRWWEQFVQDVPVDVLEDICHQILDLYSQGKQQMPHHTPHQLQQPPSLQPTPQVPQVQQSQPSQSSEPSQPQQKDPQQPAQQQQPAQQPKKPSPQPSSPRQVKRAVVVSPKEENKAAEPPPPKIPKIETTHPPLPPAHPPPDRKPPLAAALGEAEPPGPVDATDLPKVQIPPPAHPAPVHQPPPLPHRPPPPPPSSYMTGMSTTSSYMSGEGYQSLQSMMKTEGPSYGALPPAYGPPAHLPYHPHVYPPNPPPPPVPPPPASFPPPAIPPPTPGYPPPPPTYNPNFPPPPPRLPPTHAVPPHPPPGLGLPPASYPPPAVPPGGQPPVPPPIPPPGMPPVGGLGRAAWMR
T2 sequence (Q14004 whole entry, the tested form may be a part): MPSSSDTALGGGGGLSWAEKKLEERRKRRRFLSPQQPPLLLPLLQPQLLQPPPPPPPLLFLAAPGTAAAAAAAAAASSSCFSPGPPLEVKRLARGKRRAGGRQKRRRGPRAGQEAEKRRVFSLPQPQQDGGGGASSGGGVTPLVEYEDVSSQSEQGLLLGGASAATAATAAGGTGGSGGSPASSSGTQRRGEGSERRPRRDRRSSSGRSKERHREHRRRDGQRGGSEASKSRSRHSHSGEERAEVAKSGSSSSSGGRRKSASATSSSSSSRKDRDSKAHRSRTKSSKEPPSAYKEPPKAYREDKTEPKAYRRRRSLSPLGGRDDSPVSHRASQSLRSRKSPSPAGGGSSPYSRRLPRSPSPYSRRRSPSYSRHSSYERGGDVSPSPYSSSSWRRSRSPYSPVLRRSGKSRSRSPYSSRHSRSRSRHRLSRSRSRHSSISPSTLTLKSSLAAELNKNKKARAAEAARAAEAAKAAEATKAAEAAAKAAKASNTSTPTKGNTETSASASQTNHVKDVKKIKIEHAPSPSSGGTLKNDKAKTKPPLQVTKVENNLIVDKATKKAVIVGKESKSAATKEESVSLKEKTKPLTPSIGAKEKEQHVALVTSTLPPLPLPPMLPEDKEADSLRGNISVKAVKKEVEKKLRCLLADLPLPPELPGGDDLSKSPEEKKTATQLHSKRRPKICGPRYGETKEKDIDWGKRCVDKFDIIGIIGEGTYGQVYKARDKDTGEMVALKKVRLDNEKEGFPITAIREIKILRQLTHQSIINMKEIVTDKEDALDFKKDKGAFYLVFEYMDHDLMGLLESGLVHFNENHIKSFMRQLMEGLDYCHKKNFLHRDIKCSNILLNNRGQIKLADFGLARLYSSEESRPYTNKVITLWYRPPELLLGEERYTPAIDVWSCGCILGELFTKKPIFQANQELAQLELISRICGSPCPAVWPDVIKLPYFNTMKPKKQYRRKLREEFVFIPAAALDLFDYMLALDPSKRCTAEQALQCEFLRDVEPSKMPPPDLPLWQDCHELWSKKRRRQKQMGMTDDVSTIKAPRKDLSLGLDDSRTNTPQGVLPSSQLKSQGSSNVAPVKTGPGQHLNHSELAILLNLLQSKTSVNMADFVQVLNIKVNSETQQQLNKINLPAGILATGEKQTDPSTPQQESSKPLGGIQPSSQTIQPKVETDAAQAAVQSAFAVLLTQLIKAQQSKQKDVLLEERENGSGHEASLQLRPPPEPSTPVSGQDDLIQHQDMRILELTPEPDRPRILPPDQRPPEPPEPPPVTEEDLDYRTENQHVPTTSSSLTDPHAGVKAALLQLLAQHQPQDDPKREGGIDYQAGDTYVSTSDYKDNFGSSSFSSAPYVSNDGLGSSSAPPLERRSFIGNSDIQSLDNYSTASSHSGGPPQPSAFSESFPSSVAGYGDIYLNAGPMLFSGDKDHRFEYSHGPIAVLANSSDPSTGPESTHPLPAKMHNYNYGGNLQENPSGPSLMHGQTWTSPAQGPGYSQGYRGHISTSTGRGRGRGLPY
T2 sequence (O75909 whole entry partner, the tested form may be a part): as the sequence (O75909 whole entry partner) above

Compound `Cc1ncsc1-c1ccc([C@H](C)NC(=O)[C@@H]2C[C@@H](O)CN2C(=O)[C@@H](NC(=O)CN2CCN(c3ccc(-c4ccc(N(C(=O)NCc5ccccc5)[C@H]5CC[C@H](Nc6ccc(C#N)cn6)CC5)cc4)cn3)CC2)C(C)(C)C)cc1` [Formula 18] has a half-life [1] greater than 45 min, a half-life [2] greater than 45 min and a half-life [3] greater than 45 min. For the same compound, the half-life [4] was greater than 45 min, the DC50 [5] was less than 0.1 µM and the DC50 [6] was less than 0.1 µM.
With `N#Cc1ccc(NC2CCC(N(C(=O)NCc3ccccc3)c3ccc(-c4ccc(=O)n(CCOCCOCCNc5cccc6c5C(=O)N(C5CCC(=O)NC5=O)C6=O)c4)cc3)CC2)nc1` (stereo not drawn) [Formula 47] the “phosphorylation of serine 2 in the C-terminal domain of RNA polymerase II (CTD-pSer2)” value [7] was “can dose-dependently downregulate the phosphorylation of serine 2”, the DC50 [5] was 0.5 to 1 µM and the DC50 [6] was 1 to 3 µM.
In the case of `CC(=O)N(c1ccc(-c2ccc(N3CCN(c4ccc5c(c4)C(=O)N(C4CCC(=O)NC4=O)C5=O)CC3)nc2)cc1)[C@H]1CC[C@H](Nc2ncc3ccccc3n2)CC1` (stereo partly drawn) [Formula 103, N-(4-(6-(4-(2-(2,6-dioxopiperidin-3-yl)-1,3-dioxoisoindolin-5-yl)piperazin-1-yl)pyridin-3-yl)phenyl)-N-((1R,4R)-4-(quinazolin-2-ylamino)cyclohexyl)acetamide], the “reversal of CCNK degradation by MG132” value [8] is reported as “can reverse the degradation of CDK12/13 and CCNK”, the “reversal of CDK12 degradation by MG132” value [9] is reported as “can reverse the degradation of CDK12/13 and CCNK” and the “reversal of CDK13 degradation by MG132” value [10] is reported as “can reverse the degradation of CDK12/13 and CCNK”. It also gave a DC50 [11, 13] of less than 0.1 µM, a DC50 ([11]; HCT116, colorectal cancer cells, read-out: CDK12 DC50) of 0.022 µM and a DC50 ([11]; KASUMI-1, leukemia cells, read-out: CDK12 DC50) of 0.015 µM. For the same compound, the DC50 ([11]; MDA-MB-231, breast cancer cells, read-out: CDK12 DC50) was 0.016 µM, the DC50 [12, 14] was less than 0.1 µM and the DC50 ([12]; HCT116, colorectal cancer cells, read-out: CDK13 DC50) was 0.019 µM. For the same compound, the DC50 ([12]; KASUMI-1, leukemia cells, read-out: CDK13 DC50) was 0.018 µM and the DC50 ([12]; MDA-MB-231, breast cancer cells, read-out: CDK13 DC50) was 0.03 µM.
Work on `CC(=O)N(c1ccc(-c2cnc(N3CCN(c4cnn([C@H](C(=O)N5C[C@H](O)C[C@H]5C(=O)N[C@@H](C)c5ccc(-c6scnc6C)cc5)C(C)C)c4)CC3)nc2)cc1)[C@H]1CC[C@H](Nc2ncc3ccccc3n2)CC1` [Formula 154, (2S,4R)-4-hydroxy-1-((S)-3-methyl-2-(4-(4-(5-(4-(N-((1R,4R)-4-(quinazolin-2-ylamino)cyclohexyl)acetamido)phenyl)pyrimidin-2-yl)piperazin-1-yl)-1H-pyrazol-1-yl)butanoyl)-N—((S)-1-(4-(4-methylthiazol-5-yl)phenyl)ethyl)pyrrolidine-2-carboxamide] yielded a DC50 [11, 13] of 0.1 to 0.5 µM and a DC50 [12, 14] of less than 0.1 µM.
Work on `CC(=O)N(c1ccc(-c2cnc(N3CCN(c4ccc5c(c4)C(=O)N(C4CCC(=O)NC4=O)C5=O)CC3)nc2)cc1)[C@H]1CC[C@H](Nc2ncc3ccccc3n2)CC1` (stereo partly drawn) [Formula 158] yielded a DC50 [11, 13] of less than 0.1 µM and a DC50 [12, 14] of less than 0.1 µM.

From patent publication US20260327204A1, “DEGRADERS OF CYCLIN-DEPENDENT KINASE 12/13, COMPOSITIONS, AND USES THEREOF” (ZHEJIANG UNIVERSITY, priority 2023, published 2026)
